The source of these data is PMC8009417, “Selective killing of homologous recombination-deficient cancer cell lines by inhibitors of the RPA:RAD52 protein-protein interaction” (PLoS ONE, 2021).

Structures are written as SMILES.

Assay [1] deals with PARPi-resistant UWB1.SYr13 cells. Nature of the assay: Cell viability assay (PrestoBlue, 72 h), UWB1.SYr13. The class given is cell-based. The note with it: Homo sapiens, estimated from the graphs. From the text:
(§1) BRCA1-deficient UWB1.289 cells corrected with wild-type BRCA1 gene (BRCA1+; closed triangle) and parental BRCA1-deficient UWB1.289 (BRCA1-; closed circle). Two PARPi-resistant cell lines derived from UWB1.289, UWB1.289.SYr12 (closed diamond) and UWB1.SYr13 (X), were also examined.
(§2) UWB1.289 (a gift from Dr. Lee Zou, Harvard Medical School, Boston, MA) were derived from a serous ovarian carcinoma with a germline BRCA1 mutation and a deletion of the wild-type allele. […] Two PARP-resistant cell lines, SYr12 and SYr13, were derived from the UWB1.289. The Mammary Epithelial growth media, along with SupplementMix solution for UWB1 cell lines, were obtained from PromoCell GmbH and mixed as described.
(§3) Cells were seeded 5 x 10^3 cells per well in 96-well plates in a 90 μL volume per well one day before treatment. Cells in 96-well plates were incubated with increasing concentrations of the compound or vehicle control (1% DMSO) for 72 hours. Each treatment plate contained nine concentrations of a compound in sextuplicate. Growth inhibition was determined using PrestoBlue reagent (Life Technologies, #A13261). Fluorescent measurements were taken using a Spectramax M5 plate reader (MDS). To assess cells’ replication in the absence of compounds as a control, six wells on each plate were treated with vehicle to be read in triplicate at the initial treatment day (T0) and at 72-hour read (T100).

Assay [2] has as its system BRCA1-deficient HCC1937 breast cancer cells (empty vector, BRCA1-). Nature of the assay: Cell viability assay (PrestoBlue, 72 h), HCC1937 with empty vector. In kind it is cell-based. As to conditions: Homo sapiens, estimated from the graphs. The protocol: Fig 2 BRCA1-deficient HCC1937 breast cancer cell line survival assay. BRCA1-deficient HCC1937 cells corrected with wild-type BRCA1 gene (BRCA1+; closed triangle), and with an empty vector (BRCA1-; closed circle) were examined. For each experiment (Figs 2–4), cell lines were treated with nine concentrations of (A) quinacrine, (B) mitoxantrone, and (C) doxorubicin in 96-well culture plates at 5x10^3 cell/well density. Each treatment point was made in sextuplicate. Treated cells were incubated for 72 hours at 37°C before assessing cell viability using PrestoBlue. Data were normalized to vehicle control. The experiment was repeated three times. Error bars indicate the standard deviation.
The HCC1937 cell line (a gift from Dr. Simon Powell Memorial Sloan Kettering (MSK), New York) was derived from a mammary gland primary ductal carcinoma at the early onset of a tumor. This TNBC patient carried a germline mutation in BRCA1, resulting in carboxy-terminal truncated protein and loss of the second BRCA1 allele. BRCA1-restored and empty vector cell lines were also obtained by transfection of a vector containing a full-length human BRCA1 cDNA or an empty vector, respectively. The HCC1937 cell lines were cultured as described.
as §3

The subject of assay [3] is BRCA2-deficient PE01 ovarian cancer cells (BRCA2-). Nature of the assay: Cell viability assay (PrestoBlue, 72 h), PE01. The note with it: Homo sapiens, estimated from the graphs. In kind it is cell-based. The protocol:
BRCA2-deficient PE01 cell line (a gift from Dr. Toshiyasu Taniguchi, Tokai University, Japan) were derived from an ovarian cancer patient. BRCA2-proficient “revertant” cell line, C4-2 is one of eight clones derived from PE01 that has acquired resistance to both cisplatin and PARPi due to a secondary mutation that restored the BRCA2 function. PE01 and PE01 C4-2 were grown and maintained in DMEM high glucose (Hyclone) supplemented with 10% Fetal Bovine Serum (FBS, Invitrogen).
as §3

Assay [4] has as its system UWB1.289 cells with or without BRCA1 restoration. Nature of the assay: Apoptosis by cleaved PARP western blot. In kind it is cell-based, human. The note with it: 0.2 μM for three days; BRCA1-mutated vs BRCA1-restored UWB1.289. (In general: A western blot detects proteins with antibodies after separation by electrophoresis.)
Experimental: UWB1.289 cells with or without restoration of the BRCA1 expression were treated with 0.2 μM of mitoxantrone (MX) for three days. Olaparib (Ola) at 1 μM was used as control for the induction of apoptosis. Near EC50 concentrations were selected for each compound. After the treatment with each compound, cell lysates were prepared and cleaved PARP was detected with (A) anti-cleaved PARP antibody (Cell Signaling Technology #9541) and (B) anti-PARP antibody (Cell Signaling Technology #9542). Tubulin detected with anti-beta-tubulin antibody (Cell Signaling Technology #15115) was used as an internal control. (C) Ratios of cleaved PARP to tubulin were determined with ImageJ and graphed. Three independent experiments were performed and the mean values are shown. The bars indicate standard deviations. Statistical significance of differences was determined with Student t-test (* p<0.05 and ** p<0.01).
In assay [5] the test system is BRCA1-deficient UWB1.289 ovarian cancer cells (BRCA1-). Nature of the assay: Cell viability assay (PrestoBlue, 72 h), UWB1.289. In kind it is cell-based. The note with it: Homo sapiens, UWB1289, estimated from the graphs.
Text: as §1, §2, §3

The subject of another assay is RAD52 protein level. Nature of the assay: Simple Western of RAD52 protein level after treatment. The class given is cell-based, human. The note with it: 72 h at doses near EC50. The protocol:
Fig 6 The effect of mitoxantrone treatment on RAD52 levels and DNA damage. […] Data and ANOVA statistical analyses are described in the material and methods section. Significance statistics are shown with single, double, or triple asterisks representing P<0.05, P<0.005, or P<0.0005, respectively.
For western analysis, each cell line was grown and treated as described above. Protein levels were measured in lysates by size separation with a ProteinSimple PeggySue instrument following the manufacturer’s recommendations. Lysates were prepared using the NanoPro Cell Lysis Kit with Bicine/CHAPS (ProteinSimple CBS403) at 0.75 mg/mL concentration when mixed with master mix (containing SDS, DTT and fluorescent molecular weight markers; ProteinSimple PS-FL01-8) and heated for 5 min at 95°C. Electrophoretic nanocapillary size separation of proteins was performed using default settings. After separation, UV light cross-linked proteins to the capillary wall. Capillaries were then washed and incubated with primary antibodies, washed, and incubated with anti-rabbit secondary antibody conjugated with HRP (ProteinSimple DM-001). Finally, luminol and peroxide were applied to generate chemoluminescence which was imaged by a CCD camera. Primary antibody concentrations were optimized and were diluted as follows: Abcam anti-RAD52 antibody (ab18263, diluted 1:25), R&D Systems Human Phospho-histone H2AX (S139) antibody (AF2288, diluted 1:100), and Cell Signalling Technology Pan-Actin antibody (#4968, diluted 1:2500).
The Simple western data were processed and analyzed with ProteinSimple Compass software. Peak areas were calculated using dropped lines. Each lysate was analyzed for RAD52 and γH2AX levels three times and for Actin two times (see S2 Fig). Replicate peak areas for RAD52 and γH2AX were averaged, divided by the average Actin peak area of that sample, multiplied by 100 and graphed using SigmaPlot 7.0.

Regarding `O=C1c2c(O)ccc(O)c2C(=O)c2c(NCCNCCO)ccc(NCCNCCO)c21` [Mitoxantrone, mitoxantrone], the EC50 (as a rule, the midpoint of the concentration-response curve) in assay [1] was 2500 nM; in assay [2] it was 800 nM; in assay [3], 100 nM; in assay [5], 200 nM. For the same molecule, in assay [4], the “Induction of apoptosis (cleaved PARP)” value is recorded as “preferentially induced apoptosis in the BRCA1-mutated UWB1.289”. For the same molecule, the “Change of RAD52 level with treatment” value was “the level of RAD52 increased” with RAD52 protein level (HCC1937 cells), “dramatic reduction in RAD52 protein” in the assay on RAD52 protein level (PE01 cells) and “the level of RAD52 decreased” with RAD52 protein level (UWB1 cells).
